Results: PubChem BioAssay (NCI)
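Compound exposure: 48 hours, 5 concentrations, 96-well plates. The concentration for 50% growth inhibition is given as GI50. TGI denotes the concentration required for complete inhibition of growth.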

Columns and labels:
Assay in all cases: DTP human tumour cell line panel, 48 h
SR leukemia = tested on: SR leukemia
SF-295 CNS = tested on: SF-295 CNS
SF-539 CNS = tested on: SF-539 CNS
CCRF-CEM leukemia = tested on: CCRF-CEM leukemia
PC-3 prostate = tested on: PC-3 prostate
SK-MEL-5 melanoma = tested on: SK-MEL-5 melanoma
NCI/ADR-RES ovarian = tested on: NCI/ADR-RES ovarian
NCI-H522 lung = tested on: NCI-H522 lung
SW-620 colon = tested on: SW-620 colon
SK-MEL-28 melanoma = tested on: SK-MEL-28 melanoma
HT29 colon = tested on: HT29 colon
NCI-H23 lung = tested on: NCI-H23 lung
SF-268 CNS = tested on: SF-268 CNS
T-47D breast = tested on: T-47D breast
CAKI-1 renal = tested on: CAKI-1 renal
HCT-15 colon = tested on: HCT-15 colon
MALME-3M melanoma = tested on: MALME-3M melanoma
LOX IMVI melanoma = tested on: LOX IMVI melanoma
HS 578T breast = tested on: HS 578T breast
RXF 393 renal = tested on: RXF 393 renal
NCI-H460 lung = tested on: NCI-H460 lung
HOP-62 NSCLC = tested on: HOP-62 NSCLC
UACC-257 melanoma = tested on: UACC-257 melanoma
COLO 205 colon = tested on: COLO 205 colon
U251 CNS = tested on: U251 CNS
SN12C renal = tested on: SN12C renal
HOP-92 NSCLC = tested on: HOP-92 NSCLC
OVCAR-4 ovarian = tested on: OVCAR-4 ovarian

SMILES: COc1ccc2ccccc2c1/C=C1\SC(=Nc2ccc(O)cc2)NC1=O
- GI50 (SR leukemia): 321 nM
- TGI (SR leukemia): 12.5 µM
- GI50 (SF-295 CNS): 843 nM
- TGI (SF-295 CNS): 10.9 µM
- GI50 (SF-539 CNS): 517 nM
- TGI (SF-539 CNS): 3.4 µM
- GI50 (CCRF-CEM leukemia): 651 nM
- TGI (CCRF-CEM leukemia): 30.1 µM
- GI50 (PC-3 prostate): 798 nM
- TGI (PC-3 prostate): 29.1 µM
- GI50 (SK-MEL-5 melanoma): 540 nM
- TGI (SK-MEL-5 melanoma): 2280 nM
- GI50 (NCI/ADR-RES ovarian): 950 nM
- TGI (NCI/ADR-RES ovarian): 3.8 µM
- GI50 (NCI-H522 lung): 422 nM
- TGI (NCI-H522 lung): 2220 nM
- GI50 (SW-620 colon): 437 nM
- TGI (SW-620 colon): 15.8 µM
- GI50 (SK-MEL-28 melanoma): 966 nM
- TGI (SK-MEL-28 melanoma): 19.9 µM
- GI50 (HT29 colon): 2820 nM
- TGI (HT29 colon): 7.35 µM
- GI50 (NCI-H23 lung): 1110 nM
- TGI (NCI-H23 lung): 11.3 µM
- GI50 (SF-268 CNS): 1590 nM
- TGI (SF-268 CNS): 18.7 µM
- GI50 (T-47D breast): 765 nM
- TGI (T-47D breast): 31.7 µM
- GI50 (CAKI-1 renal): 11.1 µM
- TGI (CAKI-1 renal): 46.5 µM
- GI50 (HCT-15 colon): 442 nM
- TGI (HCT-15 colon): 11.1 µM
- GI50 (MALME-3M melanoma): 1020 nM
- TGI (MALME-3M melanoma): 14.4 µM
- GI50 (LOX IMVI melanoma): 666 nM
- TGI (LOX IMVI melanoma): 12.1 µM
- GI50 (HS 578T breast): 400 nM
- TGI (HS 578T breast): 11.9 µM
- GI50 (RXF 393 renal): 272 nM
- TGI (RXF 393 renal): 1710 nM
- GI50 (NCI-H460 lung): 833 nM
- TGI (NCI-H460 lung): 11.3 µM
- GI50 (HOP-62 NSCLC): 2580 nM
- TGI (HOP-62 NSCLC): 13.6 µM
- GI50 (UACC-257 melanoma): 683 nM
- TGI (UACC-257 melanoma): 19.6 µM
- GI50 (COLO 205 colon): 1880 nM
- TGI (COLO 205 colon): 5.04 µM
- GI50 (U251 CNS): 425 nM
- TGI (U251 CNS): 11.3 µM
- GI50 (SN12C renal): 2480 nM
- TGI (SN12C renal): 13.3 µM
- GI50 (HOP-92 NSCLC): 2050 nM
- TGI (HOP-92 NSCLC): 20.3 µM
- GI50 (OVCAR-4 ovarian): 3.81 µM
